Measurements published in US20020091139A1 (DAMON TODD HOLDINGS, L.L.C., priority 1997, published 2002).

Legend:
[1] = test system: severe symptomatic non-steroid dependent and steroid-dependent asthmatics; test: Open label 28-week trial of HCQ in severe asthma; assay type: in vivo, human; conditions: for mean IgE level: ten patients
Experimental: Annals of Allergy 1992;68(1):80 (abstract #40). The initial trial involved four severe symptomatic non-steroid dependent and seven steroid-dependent asthmatics in an open label 28-week trial at doses of 300-400 mg/d. Evaluation measures included daily symptom diary scores of six symptoms, subjective global evaluation, spirometric flow studies, and cumulative monthly steroid dosages.

[2] = test system: steroid-dependent asthmatics (SDA) and non-steroid-dependent asthmatics (NSDA); test: Follow-up observations of asthmatics treated long-term with HCQ (SDA and NSDA groups); assay type: in vivo, human
Description: Follow-up observations carried out over the last four years among patients treated with HCQ continue to encourage further research. In Table I and II, data concerning the course of 23 steroid-dependent asthmatics (SDA) who have been followed for at least six months on therapy is presented. Spirometric data from these patients is summarized on page 2 of Table I. In the summary, two data groups are reported: the first includes all data points generated and compares each time point with t=0; the second is restricted to the 17 patients for whom data is complete at all time points. The findings are similar for both groups: both FVC and FEV-1 increase both a significant amount (about 10%) and to a degree that is statistically significant as well (using Wilcoxon Signed-Rank probability testing). These increases occurred despite a taper in prednisone outlined in Table I and detailed in Table II. Average daily oral steroid dosage was reduced by 60%, while objective spirometric flow measures and general health improved markedly.
Changes in severity of asthma in non-steroid-dependent asthmatics (NSDA) are depicted in Table III. In Table III, spirometric flow data is presented. […] Probability testing (Wilcoxon Signed-Rank) in this group achieves significant change from baseline measures by month six and continued improvement is noted throughout the time of treatment.
2] […] In neither the NSDA group (Table I) nor in the SDA group (Table II) did spirometric flows (as measured by FEV-1) improve to a statistically significant degree at three months. […] In Table IV, data regarding the frequency of rescue-intervention in the NSDA group is reviewed. […] The course of patient, presented in Table V is illustrative of the reproducibility of the delay in onset of action seen in severe asthmatics. This patient was started on HCQ due to very labile asthma requiring frequent ER visits and oral steroid bursts (see Table VI). On HCQ they did better, but became pregnant (against medical advice) and the drug was discontinued. Subsequently, they did quite poorly necessitating restart of alternate-day oral steroids which were maintained during the latter part of their pregnancy. HCQ was restarted at their request following delivery. Again, no clear effect in the person was noted after three months, but after seven months substantial improvement was noted despite appreciable reduction in the dose of their alternate-daily oral steroids.
In patients with normal IgE levels, changes were not significant either in amount (19%) nor by statistical criteria. Significant declines in IgE were virtually completely confined to that segment of the patients who entered treatment with elevated IgE levels. […] These clinical observations are supported by in vitro studies carried out recently by Seggev and co-workers. […] J Immunol 1993;150(8):62A.

symptomatic asthmatics = test: Double blind placebo-controlled 30-week trial of HCQ in moderate symptomatic asthma; assay type: in vivo, human
Description: Symptomatic asthmatics (mean duration>11 years) on stable doses of at least 6 puffs of inhaled steroid per day and p.r.n. bronchodilator (BD) were studied. […] Changes from baseline mean FEV-1 comprised the primary efficacy variable. Other objective variables included daily peak flows, BD usage and setum IgE level; symptom scores and physician global (safety and tolerance) assessments were also obtained. Subjective efficacy variables (rated from 0-3) include breathing restrictions (wheezing, coughing, chest tightness and/or breathlessness), revived need for BD at 6 hours, and nocturnal asthma.

human lung = conditions: ex vivo human lung; cited from earlier work
[3] = test system: T-cells and monocytes; human macrophages; conditions: cited from earlier work
[4] = test system: neutrophil superoxide production; conditions: also in peripheral blood monocytes; cited from earlier work
platelet aggregation = conditions: cited from earlier work
HIV virus = conditions: T cells and monocytes; cited from earlier work
influenza and adenovirus = conditions: personal communication; cited from earlier work
[5] = group as a whole, 28 weeks, 300-400 mg/d, p<0.01
[6] = non-steroid-dependent asthmatics, p<0.05
[7] = steroid-dependent patients, not significant
[8] = steroid-dependent asthmatics, at least six months on therapy

## CCN(CCO)CCCC(C)Nc1ccnc2cc(Cl)ccc12 (stereo not shown) [HCQ, Hydroxychloroquine]
[1]; drug interaction
  effect on plasma theophylline levels: no significant effect
[1]; during treatment, p<0.05
  mean IgE level: 339 IU/ml
[1]; [5]
  mean FEV-1 increase: 17%
  mean FVC increase: 10%
[1]; group as a whole, p<0.05
  mean of each of six symptom scores: declined significantly
[1]; [6]
  mean FEV-1 rise: 32%
  mean FVC rise: 19%
  mean symptom scores for four of five symptoms: declined from baseline
[1]; pretreatment
  mean IgE level: 645 IU/ml
[1]; steroid-dependent patients, at entry
  cumulative mean monthly steroid dosage required: 383 mg
[1]; steroid-dependent patients, at week 28
  cumulative mean monthly steroid dosage required: 191 mg
[1]; steroid-dependent patients, entry to week 28, p<0.01
  decrease of cumulative mean monthly steroid dosage required: 50%
[1]; [7]
  mean FEV-1 increase: 9%
  mean FVC increase: 7%
[1]; steroid-dependent patients, p<0.05
  symptom scores: two of five symptom scores improved
[2]; 11 non-steroid-dependent asthmatics, significant from month six
  forced vital capacity and FEV-1: very significant improvements
[2]; NSDA group, until after three months therapy
  rescue-interventions (normalized rates): no significant fall
[2]; patients in general, pre- vs post-treatment
  decrease in serum IgE levels: ~40%
[2]; patients with normal IgE levels, not significant
  change in serum IgE levels: 19%
[2]; severe asthmatics
  onset of significant effects: only after three months
[2]; steroid-dependent asthmatics
  reduction of average daily oral steroid dosage: 60%
[2]; [8]
  FEV-1 increase: about 10%
  FVC increase: about 10%
Symptomatic asthmatics; 30 weeks
  tolerability: well tolerated without notable side-effects
Symptomatic asthmatics; HCQ group n=8 (4 on placebo)
  patients requiring oral steroid rescue interventions: 2 patients
Symptomatic asthmatics; HCQ group, baseline
  mean IgE level: 240 lU/ml
Symptomatic asthmatics; HCQ group, on therapy
  mean IgE level: 125 lU/ml
Symptomatic asthmatics; HCQ group, p<0.04
  evening peak flows rise: 14.2%
Symptomatic asthmatics; HCQ group, p<0.05
  mean IgE level decline: 48%
Symptomatic asthmatics; bronchodilator usage, HCQ group, p<0.03
  BD usage fall: 18.6%
Symptomatic asthmatics; last 2 visits on therapy vs baseline, HCQ group n=8, p<0.05
  mean FEV-1 increase: 10.8%
Symptomatic asthmatics; sparing of HDL levels
  effect on cholesterol: mild hypocholesterolemic effects
Human lung
  histamine release: inhibits
  leukotriene release: inhibits
[3]; T-cells and monocytes in vitro
  release of IL-1 and IL-6: inhibit
[3]; human macrophages in vitro
  release of tumor necrosis factor: inhibit
[4]
  neutrophil superoxide production and release: markedly reduce
Platelet aggregation
  platelet aggregation: inhibit
HIV virus
  replication of HIV virus: actively inhibits
Influenza and adenovirus
  infection by influenza and adenovirus: inhibits
